Entries after “also recorded” stand apart in the source; their conditions may differ.
What was measured:
[1] = system: Bacteroides thetaiotaomicron (MDA-JAX BT001); assay: MIC of meropenem with MIC test strips; format: cell-based; details: mouse-derived BT
Procedure: Mouse-derived BT (MDA-JAX BT001), Enterococcus faecalis (MDA-JAX EF001) and Clostridium disporicum (MDA-JAX CD001), Clostridium saudiense (MDA-JAX CS001), and Lachnospiraceae unclassified (MDA-JAX LS001) were isolated and cultured from mouse stool samples suspended in 1 ml of chilled 20% anaerobic glycerol in a Whitley anaerobic chamber (10% H2, 5% CO2 and 85% N2). Human-derived BT (ATCC 29148) was purchased from ATCC. Bacterial number was quantified using a Nexcelom Cellometer cell counter with SYTO™ BC dye and propidium iodide. For measuring MICs against meropenem, bacteria were cultured on BYE plates including 5% sterilized rumen fluid (Fisher Scientific) with MIC test strips (Liofilchem™ MTS™ Meropenem [MRP] 0.016-256 μg/mL, Fisher Scientific). Bacterial growth experiments were performed in a bacterial liquid media, BYEM10, composed of a hybrid of BHI and M10 supplemented with yeast extract (Table 4). Bacteria were cultured up to 48 hours at a starting concentration of 1×10^6 bacteria/ml in BYEM10 broth (pH 7.2) with and without 5 mg/ml of porcine gastric mucin (M1778, Sigma-Aldrich) with or without 0.5 mg/ml of D-(+)-xylose (X3877), D-(+)-mannose (M8574, Sigma-Aldrich) or D-(+)-glucose (G8270). Optical densities (OD600 nm) of bacterial cultures were measured with a BioTek EPOCH 2 plate reader.

[2] = Pharmacokinetics of meropenem in cecal contents by LC-MS; format: in vivo, C57BL/6 mice; details: 10 mg subcutaneous injection; 4, 8, 24, 48 and 96 hours
Procedure: C57BL/6 mice were treated with 10 mg of meropenem by subcutaneously injection. Cecal contents were collected prior to, 4, 8, 24, 48, and 96 hours after meropenem injection. To determine the relative abundance of meropenem in mouse cecum samples, extracts were prepared and analyzed with a Thermo Scientific TSQ Quantiva triple quadruple mass spectrometer coupled with a Dionex UltiMate 3000 HPLC system. Approximately 600 mgs of mouse cecal contents were homogenized with a Precellys Tissue Homogenizer. Metabolites were extracted using 100% acetonitrile. The tissue lysates were vortexed, centrifuged at 17,000 g for 5 min 5 at 4° C., and organic layers were transferred to clean tubes, followed by evaporation to dryness under nitrogen. Dried extracts were reconstituted in 50/50 (v/v) water/Acetonitrile, and 5 μL was injected for analysis by LC-MS. The mobile phase A is 100% water and mobile phase B is 0.1% Formic Acid in acetonitrile. Separation of meropenem was achieved on an Agilent SB-C18, 1.8 μm, 100×3 mm column. The flow rate was 250 μL/min at 35° C., and the gradient elution program was: 0-1 min, 5% MPB; 1-5 min, 5-50% MPB; 5-6 min, 50-95% MPB; 6-10 min, 95% MPB; 10-10.1 min, 95-5% MPB. The total run time was 15 min. The mass spectrometer was operated in the MRM positive ion electrospray mode with the transition m/z 384.1->68.0. […]

intestinal microbiota [3] = assay: Quantification of fecal bacterial density by 16S rRNA gene qPCR; format: in vivo, mice; details: 0.625 g/L meropenem in drinking water
Procedure: Genomic DNA was isolated from stool as described above. qPCR was performed as previously described (Yang et al., 2015). In brief, 16S rRNA gene sequences were amplified from total fecal DNA using the primers 926F (5′-[…]-3′) and 1062R (5′-[…]-3′). Real-time PCR was carried out in 96-well optical plates on QuantStudio Flex 6 RT PCR (Thermo Fisher) and KAPA SYBR FAST Master Mix (Roche). The PCR conditions included one initial denaturing step of 10 min at 95° C. and 40 cycles of 95° C. for 20 sec and 60° C. for 1 min. Melting-curve analysis was performed after amplification. To determine bacterial density, a plasmid with a 16S rRNA gene of a murine Blautia isolate was generated in the pCR4 backbone and used as a standard.

intestinal microbiota [4] = assay: 16S rRNA sequencing of fecal and mucosal microbiome in mice; format: in vivo
Procedure: Fecal samples which were collected from patients and mice and colonic mucosal samples, which were collected from mice were weighed before DNA isolation. […] The quality and quantity of the barcoded amplicons were assessed on an Agilent 4200 TapeStation system (Agilent) and Qubit Fluorometer (Thermo Fisher Scientific), and libraries were prepared after pooling at equimolar ratios. The final libraries were purified using QIAquick gel extraction kit (28706X4, Qiagen) and sequenced with a 2×250 base pair paired-end protocol on the Illumina MiSeq platform.
For differential abundance analysis, abundances of sequences belonging to taxonomical groups were included for analysis using the Mann-Whitney U test and adjusted for multiple comparisons using the method of Benjamini-Hochberg. Paired samples were analyzed using the Wilcoxon signed rank test with adjustment for multiple comparisons.

[5] = Carbohydrates analysis of mouse feces by IC-MS; format: in vivo; details: allogeneic mice, day 18
Procedure: To determine the relative abundance of carbohydrates in mouse feces samples, extracts were prepared and analyzed by ultra-HRMS. Fecal pellets were homogenized with a Precellys Tissue Homogenizer. Metabolites were extracted using 1 mL ice-cold 80/20 (v/v) methanol/water. Extracts were centrifuged at 17,000 g for 5 min at 4° C., and supernatants were transferred to clean tubes, followed by evaporation to dryness under nitrogen. Dried extracts were reconstituted in deionized water, and 5 μL was injected for analysis by IC-MS. IC mobile phase A (MPA; weak) was water, and mobile phase B (MPB; strong) was water containing 100 mM KOH. A Thermo Scientific Dionex ICS-5000+ system included a Thermo CarboPac PA-20-Fast column (4 μm particle size, 100×2 mm) with column compartment kept at 30° C. The autosampler tray was chilled to 4° C. The mobile phase flow rate was 200 μL/min, and the gradient elution program was: 0-0.5 min, 1% MPB; 0.5-10 min, 1-5% MPB; 10-15 min, 5-95% MPB; 15-20 min, 95% MPB; 20.5-25, 95-1% MPB. The total run time was 25 min. To assist the desolvation for better sensitivity, methanol was delivered by an external pump and combined with the eluent via a low dead volume mixing tee. Data were acquired using a Thermo Orbitrap Fusion Tribrid Mass Spectrometer under ESI negative ionization mode at a resolution of 240,000. […]

intestinal microbiota [6] = assay: Fecal microbiome of 44 allo-HSCT patients, pre-HSCT versus day 14; format: in vivo, human; details: pre-HSCT vs day 14, paired analysis
Procedure: Fecal samples which were collected from patients and mice and colonic mucosal samples, which were collected from mice were weighed before DNA isolation. In brief, genomic DNA was isolated using the QIAamp DNA mini kit (51306, Qiagen) according to the manufacturer's protocol that was modified to include an intensive bead-beating lysis step. The V4 region of 16S rRNA gene was amplified by PCR from 100 ng of each of extracted and purified genomic DNA using 515 forward and 806 reverse primer pairs (Caporaso et al., 2012). The quality and quantity of the barcoded amplicons were assessed on an Agilent 4200 TapeStation system (Agilent) and Qubit Fluorometer (Thermo Fisher Scientific), and libraries were prepared after pooling at equimolar ratios. […]
Sequencing data from paired-end reads were de-multiplexed using QIIME 2 (Caporaso et al., 2010). Merging of paired-end reads, dereplicating, and length filtering was performed using VSEARCH 2.17.1 (Rognes et al., 2016). […] Weighted UniFrac distances (Lozupone et al., 2011) were determined using QIIME 2, visualized using principal coordinate analysis, and evaluated for statistical significance using permutational multivariate analysis of variance (PERMANOVA) testing. […] Paired samples were analyzed using the Wilcoxon signed rank test with adjustment for multiple comparisons.

C[C@@H](O)[C@H]1C(=O)N2C(C(=O)O)=C(S[C@@H]3CN[C@H](C(=O)N(C)C)C3)[C@H](C)[C@H]12 [meropenem]
MIC [1]: 4 µg/mL
meropenem concentrations in the cecal lumen [2]: increase in meropenem concentrations in the cecum at 4 hours after injection, which rapidly declined afterwards
reduction in fecal bacterial density (intestinal microbiota [3]): one-log reduction
abundances of Bacteroides and several other genera (intestinal microbiota [4]; allogeneic mice, day 21): significantly higher abundances
relative abundance of Clostridia (intestinal microbiota [4]; meropenem-treated allogeneic mice, from day 7 until 6 days after stopping): depleted; also recorded: significantly decreased
compositional differences between luminal and mucosal samples (intestinal microbiota [4]; treated allogeneic mice, PERMANOVA testing): loss of this distinction
levels of luminal monosaccharides in the colon [5]: significantly lower concentrations of arabinose and xylose; also recorded: decreased levels of xylose
change of genus Bacteroides from baseline (intestinal microbiota [6]): significant expansion of bacteria from the genus Bacteroides

Source: patent publication US20260021147A1, “COMPOSITIONS AND METHODS FOR TREATING INFLAMMATORY DISEASE” (The Regents of the University of Michigan, priority 2022, published 2026)
